We go through 22 compounds from patent US10980781B2, “6-amino-2,4-dihydropyrano [2,3-c] pyrazoles and methods of use” (Purdue Research Foundation, priority 2017, dated 2021).

Each structure is given as a SMILES string.

The inhibition is the share of the control response that was lost under treatment. Read a high inhibition as strong suppression. As a reminder, the IC50 is the concentration that inhibits the measured activity by half. Lower therefore signals greater potency in that assay.

For the assay, the target named is USP7 (Homo sapiens (Human), UniProt Q93009). Nature of the assay: USP7 inhibition assay with Ub-Rho 110 substrate (fluorescence progress curves). The format is biochemical. The settings on record: for IC50: 11 compound concentrations, two-fold serial dilutions, 1 nM USP7, 200 nM Ub-Rho 110. As for the experimental part: Each assay was measured in triplicate. […] All reactions contained a final concentration of 3% DMSO. […] The percent inhibition was calculated using Equation (1).
The assay design was identical to as described above. The percent inhibition was calculated using Equation 1 and fit to Equation 2 by use of the Enzyme Kinetics Module of Sigma Plot (v13:Systat Software Inc.), to determine the IC50 value.

The mark [1] stands for this setting: 100 μM compound, 1 nM USP7, 200 nM Ub-Rho 110, 3% DMSO, triplicate.

USP7, sequence (Q93009 whole entry): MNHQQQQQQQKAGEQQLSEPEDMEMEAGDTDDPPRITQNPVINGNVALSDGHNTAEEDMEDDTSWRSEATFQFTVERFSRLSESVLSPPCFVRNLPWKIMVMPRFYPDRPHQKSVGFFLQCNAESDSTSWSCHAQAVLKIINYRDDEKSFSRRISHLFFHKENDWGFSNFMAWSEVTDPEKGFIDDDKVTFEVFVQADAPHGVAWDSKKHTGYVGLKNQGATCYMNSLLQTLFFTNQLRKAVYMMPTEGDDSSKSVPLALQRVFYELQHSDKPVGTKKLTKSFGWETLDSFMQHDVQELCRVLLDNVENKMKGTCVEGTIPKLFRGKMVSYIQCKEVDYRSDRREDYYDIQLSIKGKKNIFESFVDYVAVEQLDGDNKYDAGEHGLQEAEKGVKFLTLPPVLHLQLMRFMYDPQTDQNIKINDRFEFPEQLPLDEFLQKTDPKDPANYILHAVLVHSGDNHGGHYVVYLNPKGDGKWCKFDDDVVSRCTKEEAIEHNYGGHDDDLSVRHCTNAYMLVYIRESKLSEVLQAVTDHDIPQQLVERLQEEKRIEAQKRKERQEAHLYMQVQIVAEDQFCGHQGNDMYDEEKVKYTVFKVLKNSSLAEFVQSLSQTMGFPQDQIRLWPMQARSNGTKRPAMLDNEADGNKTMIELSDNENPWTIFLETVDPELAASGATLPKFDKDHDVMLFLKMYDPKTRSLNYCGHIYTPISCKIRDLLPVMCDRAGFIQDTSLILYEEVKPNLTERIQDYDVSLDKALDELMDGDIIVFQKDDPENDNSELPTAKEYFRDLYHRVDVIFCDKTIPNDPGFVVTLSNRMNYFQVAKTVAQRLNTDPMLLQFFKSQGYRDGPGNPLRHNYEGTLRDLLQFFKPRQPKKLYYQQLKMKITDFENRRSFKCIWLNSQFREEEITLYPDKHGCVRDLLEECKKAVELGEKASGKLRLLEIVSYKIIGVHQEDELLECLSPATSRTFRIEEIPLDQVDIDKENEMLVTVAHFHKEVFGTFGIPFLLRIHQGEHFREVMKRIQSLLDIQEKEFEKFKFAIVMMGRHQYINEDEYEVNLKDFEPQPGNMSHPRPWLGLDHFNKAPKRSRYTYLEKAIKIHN

Consider `Cc1ccc(C2C(C#N)=C(N)Oc3n[nH]c(-c4ccc(Cl)cc4)c32)cc1C` (centres unmarked) [Compound 7g, 6-Amino-3-(4-chlorophenyl)-4-(3,4-dimethylphenyl)-2,4-dihydropyrano[2,3-c]pyrazole-5-carbonitrile], for which, under setting [1], 100 µM produced 34 ± 6% inhibition.

In turn, `COc1ccc(C2C(C#N)=C(N)Oc3nn(C(C)=O)c(-c4cccs4)c32)cc1Br` (centres unmarked) [Compound 14, 2-Acetyl-6-amino-4-(3-bromo-4-methoxyphenyl)-3-(thiophen-2-yl)-2,4-dihydropyrano[2,3-c]pyrazole-5-carbonitrile] had an IC50 of 0.53 ± 0.05 µM. The compound also displayed an inhibition at 100 µM under setting [1] of 85 ± 2%. Regarding `COc1ccc(C2C(C#N)=C(N)Oc3n[nH]c(-c4cc(C)sc4C)c32)cc1Br` (centres unmarked) [Compound 7n, 6-Amino-4-(3-bromo-4-methoxyphenyl)-3-(2,5-dimethylthiophen-3-yl)-2,4-dihydropyrano[2,3-c]pyrazole-5-carbonitrile], the inhibition at 100 µM under setting [1] was 32 ± 3%. The compound `COc1ccc(C2C(C#N)=C(N)Oc3n[nH]c(-c4cccs4)c32)cc1F` (racemic) [Compound 6s, 6-Amino-4-(3-fluoro-4-methoxyphenyl)-3-(thiophen-2-yl)-2,4-dihydropyrano [2,3-c]pyrazole-5-carbonitrile] displayed an IC50 of 7 ± 2 µM. The inhibition at 100 µM under setting [1] was determined as 32 ± 13%. Compound `COc1ccc(C2C(C#N)=C(N)Oc3n[nH]c(-c4cc(C)sc4C)c32)cc1I` (centres unmarked) [Compound 7o, 6-Amino-3-(2,5-dimethylthiophen-3-yl)-4-(3-iodo-4-methoxyphenyl)-2,4-dihydropyrano[2,3-c]pyrazole-5-carbonitrile] gave an inhibition at 100 µM under setting [1] of 29 ± 6%. Consider `COc1ccc(C2C(C#N)=C(N)Oc3n[nH]c(-c4ccccn4)c32)cc1Br` (racemic) [Compound 7c, 6-Amino-4-(3-bromo-4-methoxyphenyl)-3-(pyridin-2-yl)-2,4-dihydropyrano [2,3-c]pyrazole-5-carbonitrile], for which the IC50 turned out to be 7.9 ± 0.4 µM. Under setting [1], the inhibition at 100 µM was determined as 85 ± 2%.

Turning to `COc1ccc(C2C(C#N)=C(N)Oc3c2c(-c2cccs2)nn3C)cc1Br` (centres unmarked) [Compound 9a, 6-Amino-4-(3-bromo-4-methoxyphenyl)-1-methyl-3-(thiophen-2-yl)-1,4-dihydropyrano[2,3-c]pyrazole-5-carbonitrile], under setting [1], the inhibition at 100 µM is 0%. Still for that read-out and setting: under `COc1ccc(C2C(C#N)=C(N)Oc3n[nH]c(-c4cccs4)c32)cc1` (centres unmarked) [Compound 6b, 6-Amino-4-(4-methoxyphenyl)-3-(thiophen-2-yl)-2,4-dihydropyrano [2,3-c]pyrazole-5-carbonitrile] stands 10 ± 7%. On the same count and under the same terms, under `N#CC1=C(N)Oc2n[nH]c(-c3cccs3)c2C1c1ccc(Cl)cc1` (centres unmarked) [Compound 6f, 6-Amino-4-(4-chlorophenyl)-3-(thiophen-2-yl)-2,4-dihydropyrano[2,3-c]pyrazole-5-carbonitrile] stands 31 ± 6%. Compound `COc1ccc(C2C(C#N)=C(N)Oc3n[nH]c(-c4cccnc4)c32)cc1I` (racemic) [Compound 7f, 6-Amino-4-(3-iodo-4-methoxyphenyl)-3-(pyridin-3-yl)-2,4-dihydropyrano [2,3-c]pyrazole-5-carbonitrile] returned a half-maximal inhibitory concentration (IC50) of 7.7 ± 0.9 µM. The compound further registered an inhibition at 100 µM under setting [1] of 83 ± 3%.

Turning to `COc1ccc(C2C(C#N)=C(N)Oc3n[nH]c(-c4ccc(Cl)cc4)c32)cc1I` (centres unmarked) [Compound 7i, 6-Amino-3-(4-chlorophenyl)-4-(3-iodo-4-methoxyphenyl)-2,4-dihydropyrano [2,3-c]pyrazole-5-carbonitrilem], the midpoint of inhibition, the IC50, lay at 15 ± 2 µM. Moreover, the “% inhibition @100 μM” value under setting [1] amounted to 69 ± 3%. `COc1ccc(C2C(C#N)=C(N)Oc3n[nH]c(-c4ccn(C)c4)c32)cc1Br` (racemic) [Compound 7l, 6-Amino-4-(3-bromo-4-methoxyphenyl)-3-(1-methyl-1H-pyrrol-3-yl)-2,4-dihydropyrano[2,3-c]pyrazole-5-carbonitrile] yielded an IC50 of 1.91 ± 0.8 µM. Besides, at 100 µM the inhibition under setting [1] was 88 ± 0.09%. Take `Cc1ccc(C2C(C#N)=C(N)Oc3n[nH]c(-c4cccs4)c32)cc1` (centres unmarked) [Compound 6e, 6-Amino-3-(thiophen-2-yl)-4-(p-tolyl)-2,4-dihydropyrano [2,3-c]pyrazole-5-carbonitrile]: the inhibition at 100 µM under setting [1] came to 0%. In the case of `CCOCNC1=C(C#N)C(c2ccc(OC)c(Br)c2)c2c(-c3cccs3)nn(C)c2O1` (centres unmarked) [Compound 11, 4-(3-Bromo-4-methoxyphenyl)-6-((ethoxymethyl)amino)-1-methyl-3-(thiophen-2-yl)-1,4-dihydropyrano [2,3-c]pyrazole-5-carbonitrile], under setting [1], the inhibition at 100 µM was 0%.

The compound `CNC1=C(C#N)C(c2ccc(OC)c(Br)c2)c2c(n[nH]c2-c2cccs2)O1` (centres unmarked) [Compound 13, 4-(3-Bromo-4-methoxyphenyl)-6-(methylamino)-3-(thiophen-2-yl)-2,4-dihydropyrano[2,3-c]pyrazole-5-carbonitrile] came in with an inhibition at 100 µM under setting [1] of 47 ± 1%. The same measure, in the same setting: under `CCCOc1ccc(C2C(C#N)=C(N)Oc3n[nH]c(-c4cccs4)c32)cc1Br` (centres unmarked) [Compound 6m, 6-Amino-4-(3-bromo-4-propoxyphenyl)-3-(thiophen-2-yl)-2,4-dihydropyrano [2,3-c]pyrazole-5-carbonitrile] stands 32 ± 5%. As for `C#CCOc1ccc(C2C(C#N)=C(N)Oc3n[nH]c(-c4cccs4)c32)cc1Br` (racemic) [Compound 6n, 6-Amino-4-(3-bromo-4-(prop-2-yn-1-yloxy)phenyl)-3-(thiophen-2-yl)-2,4-dihydropyrano[2,3-c]pyrazole-5-carbonitrile], the IC50 worked out at 4.5 ± 0.6 µM. In addition, the inhibition at 100 µM under setting [1] stood at 84 ± 2%. Take `N#CC1=C(N)Oc2n[nH]c(-c3cccs3)c2C1c1cc(Br)c(OCc2ccccc2)c(Br)c1` (centres unmarked) [Compound 6l, 6-amino-4-(4-(benzyloxy)-3,5-dibromophenyl)-3-(thiophen-2-yl)-2,4-dihydropyrano[2,3-c]pyrazole-5-carbonitrile]: at 100 µM the inhibition under setting [1] was 26 ± 3%. On the same count and under the same terms, under `COc1ccc(C2C(C#N)=COc3n[nH]c(-c4cccs4)c32)cc1Br` (centres unmarked) [Compound 15, 4-(3-Bromo-4-methoxyphenyl)-3-(thiophen-2-yl)-2,4-dihydropyrano [2,3-c]pyrazole-5-carbonitrile] stands 0%.

In turn, `N#CC1=C(N)Oc2n[nH]c(-c3cccs3)c2C1c1ccc2c(c1)CCO2` (racemic) [Compound 6o, 6-Amino-4-(2,3-dihydrobenzofuran-5-yl)-3-(thiophen-2-yl)-2,4-dihydropyrano [2,3-c]pyrazole-5-carbonitrile] showed a half-inhibitory concentration (IC50) of 13 ± 3 µM. Besides, at 100 µM the inhibition under setting [1] was 45 ± 9%. The corresponding values for `COc1ccc(C2C(C#N)=C(N)Oc3n[nH]c(-c4ccsc4)c32)cc1I` (racemic) [Compound 7b, 6-Amino-4-(3-iodo-4-methoxyphenyl)-3-(thiophen-3-yl)-2,4-dihydropyrano [2,3-c]pyrazole-5-carbonitrile] are 5.6 ± 0.7 µM and 71 ± 3%. As for `COc1ccc(C2C(C#N)=C(N)Oc3n[nH]c(-c4cccs4)c32)cc1I` (racemic) [Compound 6u, 6-Amino-4-(3-iodo-4-methoxyphenyl)-3-(thiophen-2-yl)-2,4-dihydropyrano [2,3-c]pyrazole-5-carbonitrile], the midpoint of inhibition, the IC50, lay at 1.8 ± 0.1 µM. The inhibition at 100 µM under setting [1] is 85 ± 1%.
